Experimental data taken from the supplement of paper PMC8671470.
± gives the standard deviation of the averaged measurements.

Assays:
Conditions in all cases: 72 h
MV4-11 [1] = system: MV4-11
Method in brief: (§1)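 The IC50 was derived from log-logistic dose–response fitting. Each of fifteen myeloid leukaemia cell lines, seeded in RPMI 1640 within its linear growth range, was exposed in 384-well plates to five tenfold doses (1 to 10,000 nM) in duplicate for 72 h at 37 °C and 5% CO2. Luminescent ATP viability readings were normalised to vehicle and to a positive control at 10 µM before four-parameter curve fitting.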

HL-60 [2] = system: HL-60
Method in brief: as §1

BV-173 = system: BV-173
Method in brief: as §1

SHI-1 [3] = system: SHI-1
Method in brief: as §1

K-562 [4] = system: K-562
Method in brief: as §1

THP-1 [5] = system: THP-1
Method in brief: as §1

KCL-22 [6] = system: KCL-22
Method in brief: as §1

KU-812 [7] = system: KU-812
Method in brief: as §1

MOLM-13 [8] = system: MOLM-13
Method in brief: as §1

ML-2 [9] = system: ML-2
Method in brief: as §1

Mono-Mac-6 = system: Mono-Mac-6
Method in brief: as §1

NOMO-1 [10] = system: NOMO-1
Method in brief: as §1

HEL [11] = system: HEL
Method in brief: as §1

LAMA-84 = system: LAMA-84
Method in brief: as §1

KG-1 [12] = system: KG-1
Method in brief: as §1

MV4-11 [13] = assay: cell viability (% survival relative to DMSO control, bortezomib = 0%); higher = less cytotoxic
Method in brief: (§2)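 Percent survival figures are means of duplicate wells. They were obtained by CellTiter-Glo luminescence after 10 AML and 5 CML cell lines spent 72 h at 37 °C with 5% CO2 in 384-well plates with compounds at 1, 10, 100, 1000 or 10000 nM. Vehicle was set to 100% and a 10 µM positive control to 0%.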

HL-60 [14] = assay: as above
Method in brief: as §2

SHI-1 [15] = assay: as above
Method in brief: as §2

K-562 [16] = assay: as above
Method in brief: as §2

THP-1 [17] = assay: as above
Method in brief: as §2

KCL-22 [18] = assay: as above
Method in brief: as §2

KU-812 [19] = assay: as above
Method in brief: as §2

MOLM-13 [20] = assay: as above
Method in brief: as §2

ML-2 [21] = assay: as above
Method in brief: as §2

NOMO-1 [22] = assay: as above
Method in brief: as §2

HEL [23] = assay: as above
Method in brief: as §2

KG-1 [24] = assay: as above
Method in brief: as §2

HL-60 [25] = assay: cell viability (% survival relative to DMSO control); higher = less cytotoxic
Method in brief: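 Area under the curve, where listed, was derived from four-parameter log-logistic fits with drc and PharmacoGx. These fits used CellTiter-Glo viability from HL-60 cells in RPMI 1640 with 10% FBS, normalised to DMSO wells and wells holding 10 μM proteasome inhibitor. The full library was rescreened on 384-well plates in duplicate at five tenfold concentrations, 1–10,000 nM, with DMSO or 100 nM of one of three metabolic inhibitors, for 72 h at 37 °C, 5% CO2.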

Cn1cc(-c2ccncc2)c(-c2ccc(OCc3ccc4ccccc4n3)cc2)n1
Conditions | IC50 (cell viability) [µM]
BV-173 | > 10
HEL [11] | 9.86
HL-60 [2] | > 10
K-562 [4] | > 10
KCL-22 [6] | > 10
KG-1 [12] | > 10
KU-812 [7] | 8.42
LAMA-84 | > 10
ML-2 [9] | > 10
MOLM-13 [8] | 1.74
MV4-11 [1] | 2.09
Mono-Mac-6 | > 10
NOMO-1 [10] | > 10
SHI-1 [3] | > 10
THP-1 [5] | > 10

cell viability [%]
Conditions | 1 nM | 10 nM | 100 nM | 1000 nM | 10000 nM
HEL [23] | 93 | 119 | 96.9 | 99.8 | 59.4
HL-60 [14] | 117 | 92.7 | 103 | 136 | 64.2
K-562 [16] | 99.5 | 109 | 106 | 98.5 | 57.9
KCL-22 [18] | 116 | 96 | 96.4 | 102 | 73.7
KG-1 [24] | 97.7 | 96.7 | 110 | 102 | 87.4
KU-812 [19] | 95.4 | 103 | 93.3 | 92.4 | 43.1
ML-2 [21] | 101 | 94.6 | 98.3 | 103 | 69.3
MOLM-13 [20] | 123 | 99.5 | 95.9 | 69.4 | 6.76
MV4-11 [13] | 101 | 118 | 91.5 | 76.5 | 7.29
NOMO-1 [22] | 103 | 98.8 | 97 | 101 | 93.9
SHI-1 [15] | 99 | 104 | 107 | 104 | 93.7
THP-1 [17] | 92.7 | 101 | 100 | 104 | 92

O=C(O)CC[N+](=O)[O-] [3-nitropropionic acid]
Conditions | IC50 (cell viability) [µM]
BV-173 | > 10
HEL [11] | > 10
HL-60 [2] | 4.69
K-562 [4] | 3.64
KCL-22 [6] | > 10
KG-1 [12] | > 10
KU-812 [7] | > 10
LAMA-84 | > 10
ML-2 [9] | > 10
MOLM-13 [8] | 2.87
MV4-11 [1] | 3.17
Mono-Mac-6 | > 10
NOMO-1 [10] | > 10
SHI-1 [3] | 2.94
THP-1 [5] | > 10

cell viability [%], HL-60 [25]
Conditions | 0.001 µM | 0.01 µM | 0.1 µM | 1 µM | 10 µM
co-treatment: AZD3965 100 nM | 102 ± 2.5 | 95.1 ± 6.5 | 101 ± 3.9 | 101.5 ± 0.46 | 97.6 ± 4.4
co-treatment: DMSO vehicle | 99.6 ± 5.9 | 98.8 ± 1.1 | 107 ± 3.9 | 111 ± 15 | 101 ± 5.7
co-treatment: GSK2194069 100 nM | 98.1 ± 5.8 | 76.9 ± 5 | 116 ± 17 | 115 ± 27 | 96.7 ± 5
co-treatment: pictilisib 100 nM | 84.3 ± 4.9 | 82.1 ± 29 | 103 ± 4.1 | 128 ± 28 | 106 ± 16

cell viability [%]
Conditions | 1 nM | 10 nM | 100 nM | 1000 nM | 10000 nM
HEL [23] | 92.8 | 116 | 117 | 98.8 | 104
HL-60 [14] | 52.3 | 157 | 104 | 108 | 14.7
K-562 [16] | 112 | 120 | 89.7 | 95 | 10.5
KCL-22 [18] | 73.9 | 101 | 98.3 | 123 | 81
KG-1 [24] | 99 | 91.2 | 97.3 | 97.3 | 104
KU-812 [19] | 95.5 | 103 | 99.8 | 99.2 | 88.1
ML-2 [21] | 104 | 107 | 107 | 102 | 87
MOLM-13 [20] | 68.7 | 122 | 110 | 94 | 0.718
MV4-11 [13] | 105 | 115 | 87.2 | 99.5 | 0.752
NOMO-1 [22] | 94.8 | 93.2 | 101 | 104 | 93.4
SHI-1 [15] | 90.7 | 120 | 97.5 | 92.9 | 3.76
THP-1 [17] | 88.2 | 96.7 | 99.1 | 86.5 | 92.2
